From patent US20230365493A1, “COMPOUNDS AND METHODS” (DEMAGTECH PTY LTD, priority 2020, published 2023)

Legend:
Arabidopsis thaliana [1] = assay: Small-scale drift (volatility) assay; set-up: species or system Arabidopsis thaliana Col-0; settings: for drift burn (volatility), FIG. 6: 15 mM and 30 mM, same methodology; for drift behaviour, FIG. 27: 2.5 or 5 mM, images recorded at 17 days; for drift burn (volatility), FIG. 5: 5, 10 or 15 mM in lid in centre of pot, imaged after 2 weeks
Method: A small-scale drift assay was established. Pots (63×63×59 mm) were filled with Seedling Substrate Plus+ soil (Bord na Móna Horticulture Ltd, Newbridge, Ireland) consisting of Irish peat. Soil was pre-wet before sowing to saturation and a plastic lid from a 50 mL tube placed in the centre of each pot. Seeds of wild type Col-0 Arabidopsis thaliana were sown around each of the lids. Seeds were cold-treated for 3 days in the dark at 4° C. to synchronize germination and then grown in a chamber at 22° C., with 60% relative humidity and in a 16 h light/8 h dark photoperiod. […] After growth for 2 weeks plants were imaged. (In the case of FIG. 27, images were recorded at 17 days).
A second experiment was performed using the same methodology, but at higher concentrations (15 mM and 30 mM).

Arabidopsis thaliana [2] = assay: Activity vs a panel of plants: Arabidopsis thaliana; format: in vivo; settings: 31.25 μM to 4000 μM; imaged day 12
Excerpt: (§1) Pots (63×63×59 mm) were filled with Seedling Substrate Plus+ soil (Bord na Móna Horticulture Ltd, Newbridge, Ireland) consisting of Irish peat. Soil was pre-wet to saturation before sowing seeds. Seeds of the following species were sown. • Arabidopsis thaliana • Cynodon dactylon (couch grass) • Eragrostis tef (tef) • Lolium rigidum (herbicide resistant ryegrass) • Ratibida columnifera (prairie coneflower) • Raphanus raphanistrum (wild radish) • Solanum lycopersicum (tomato) • Triticum aestivum (wheat)
(§2) The number of seeds depended on germination rate and plant size. Seeds were sown in pots (63×63×59 mm) of Seedling Substrate Plus+ soil (Bord na Móna Horticulture Ltd, Newbridge, Ireland) consisting of Irish peat. Soil was pre-wet before sowing to saturation and watered throughout the experiment to maintain adequate moisture. No fertilizer was added. Seeds were cold-treated 7 days in the dark at 4° C. to synchronize germination and grown in a chamber at 22° C., with 60% relative humidity and a 16 h light/8 h dark photoperiod. […]
(§3) Each compound was tested on seedlings by pipetting 600 μL of 0, 31.25, 62.5, 125, 250, 500, 1000, 2000 or 4000 μmol/L solutions directly onto the plants; these quantities and concentrations are equivalent to ˜10, 20, 40, 78, 156, 312, 625 and 1250 g/ha a.i. […]

[3] = system: Cynodon dactylon (couch grass); assay: Activity vs a panel of plants: Cynodon dactylon; format: in vivo; settings: 31.25 μM to 4000 μM; imaged day 10
Excerpt: as §1, §2, §3

Eragrostis tef (tef) = assay: Activity vs a panel of plants: Eragrostis tef; format: in vivo; settings: 31.25 μM to 4000 μM; imaged day 12
Excerpt: as §1, §2, §3

[4] = system: Lolium rigidum (herbicide resistant ryegrass); assay: Activity vs a panel of plants: Lolium rigidum; format: in vivo; settings: 31.25 μM to 4000 μM; imaged day 12
Excerpt: as §1, §2, §3

[5] = system: Ratibida columnifera (prairie coneflower); assay: Activity vs a panel of plants: Ratibida columnifera; format: in vivo; settings: 31.25 μM to 4000 μM; imaged day 12
Excerpt: as §1, §2, §3

[6] = system: Raphanus raphanistrum (wild radish); assay: Activity vs a panel of plants: Raphanus raphanistrum; format: in vivo; settings: 31.25 μM to 4000 μM; imaged day 10
Excerpt: as §1, §2, §3

[7] = system: Solanum lycopersicum (tomato); assay: Activity vs a panel of plants: Solanum lycopersicum; format: in vivo; settings: 31.25 μM to 4000 μM; imaged day 10
Excerpt: as §1, §2, §3

[8] = system: Triticum aestivum (wheat); assay: Activity vs a panel of plants: Triticum aestivum; format: in vivo; settings: 31.25 μM to 4000 μM; imaged day 12
Excerpt: as §1, §2, §3

[9] = system: A. thaliana wild type Col-0 or single-locus DMOc line; assay: Compatibility with the DMOc dicamba tolerance trait; format: in vivo, Arabidopsis thaliana; settings: wild type vs DMOc line; dicamba 7-125 μM, 1·HCl 31-500 μM; sprayed at 4 and 7 days; imaged Day 11
Excerpt: To recreate dicamba tolerance by dicamba monooxygenase in A. thaliana similarly to that made by Behrens et al. (2007, Science 316: 1185-1188) a synthetic gene encoding the oxygenaseDIC from Stenotrophomonas maltophilia strain DI-6 (GenBank accession AY786443) was made to include a 58-residue chloroplast targeting leader used by Anderson and Smith (1986, Biochem. J. 240: 709-715) and incorporated a […] mutation said to provide useful changes in pH and temperature optima (See, for example, […] in International Patent Application WO2007146706A2). A BamHI site immediately preceding the sequence encoding the start Met and a SacI site immediately after the stop codon were used to subclone this synthetic DMOc gene into pMDC43 (Curtis and Grossniklaus 2003 Plant Physiol. 133: 462-469), from which the mGFP6 coding sequence and Gateway recombination cassette were removed by the same restriction enzymes, putting DMOc under control of a double CaM[…] promoter and providing it the nopaline synthase terminator. The plasmid pMDC43-DMOc was transferred from E. coli containing the plasmid to Agrobacterium tumefaciens (strain LBA4404) using a helper strain (E. coli […] pRK2013). Wild type Col-0 Arabidopsis thaliana was transformed by in planta transformation. The first transgenic generation (T1) was selected on MS-agar plates (1% agar, 1×MS salts, pH 5.7, 1% glucose) containing 20 μg/mL hygromycin. […]

Compound	drift burn (volatility), FIG. 6 (Arabidopsis thaliana [1])	drift behaviour, FIG. 27 (Arabidopsis thaliana [1])	drift burn (volatility), FIG. 5 (Arabidopsis thaliana [1])	activity against Arabidopsis thaliana on an equimolar basis, FIG. 7 (Arabidopsis thaliana [2])	activity against Cynodon dactylon on an equimolar basis, FIGS. 8 and 9 [3]	activity against Eragrostis tef on an equimolar basis, FIG. 10 (Eragrostis tef (tef))	activity against Lolium rigidum on an equimolar basis, FIG. 11 [4]	activity against Ratibida columnifera on an equimolar basis, FIG. 12 [5]	activity against Raphanus raphanistrum on an equimolar basis, FIGS. 13 and 14 [6]	activity against Solanum lycopersicum on an equimolar basis, FIGS. 15 and 16 [7]	activity against Triticum aestivum on an equimolar basis, FIG. 17 [8]	compatibility with the dicamba tolerance (DMOc) trait, FIG. 26 [9]
COc1c(Cl)ccc(Cl)c1C(=O)OCCN(C)C.Cl [Compound 1. HCl, 2-(dimethylamino)ethyl 3,6-dichloro-2-methoxybenzoate hydrochloride]	did not show any drift burn	does not drift	no drift burn at all was visible	comparable activity	comparable activity	comparable activity	comparable activity	comparable activity	comparable activity	comparable activity	comparable activity	Compatible with the DMOc Trait
COc1c(Cl)ccc(Cl)c1C(=O)O [dicamba, 3,6-dichloro-2-methoxybenzoic acid, reference compound]	did	drifted	burn symptoms are apparent	comparable activity	comparable activity	comparable activity	comparable activity	comparable activity	comparable activity	comparable activity	comparable activity	compatibility
